ChEMBL document CHEMBL5653631, “A Potent and Selective ULK1 Inhibitor Suppresses Autophagy and Sensitizes Cancer Cells to Nutrient Stress” (iScience, 2018)
Blank lines part the entries; values can stand above or below the compound they belong to.

Columns and labels:
[1] = biological target: T1, Dual specificity tyrosine-phosphorylation-regulated kinase 3 (Homo sapiens) (UniProt O43781); assay: Inhibition of human recombinant DYRK3 at 500 nM in presence of ATP by radiometric assay relative to control
T1 sequence (whole entry): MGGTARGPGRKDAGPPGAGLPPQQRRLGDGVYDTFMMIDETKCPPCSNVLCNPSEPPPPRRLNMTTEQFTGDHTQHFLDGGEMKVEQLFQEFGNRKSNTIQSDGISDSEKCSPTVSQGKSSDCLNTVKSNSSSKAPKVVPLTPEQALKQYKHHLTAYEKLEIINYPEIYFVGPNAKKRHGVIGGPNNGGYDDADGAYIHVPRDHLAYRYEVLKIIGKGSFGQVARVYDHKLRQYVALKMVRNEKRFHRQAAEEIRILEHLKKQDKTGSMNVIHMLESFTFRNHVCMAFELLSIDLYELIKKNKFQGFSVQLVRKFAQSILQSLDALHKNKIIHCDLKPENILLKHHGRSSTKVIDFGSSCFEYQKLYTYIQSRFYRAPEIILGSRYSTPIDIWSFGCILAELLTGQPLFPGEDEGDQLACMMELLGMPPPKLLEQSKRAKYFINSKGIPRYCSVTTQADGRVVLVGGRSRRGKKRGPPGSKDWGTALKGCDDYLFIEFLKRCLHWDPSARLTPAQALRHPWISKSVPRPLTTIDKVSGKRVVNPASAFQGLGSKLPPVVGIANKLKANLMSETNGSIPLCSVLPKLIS

[2] = biological target: Serine/threonine-protein kinase N2 (Homo sapiens) (UniProt Q16513); assay: Inhibition of human recombinant PKN2 at 500 nM in presence of ATP by radiometric assay relative to control
Chain of Serine/threonine-protein kinase N2 (Homo sapiens) (Q16513 whole entry, looked up): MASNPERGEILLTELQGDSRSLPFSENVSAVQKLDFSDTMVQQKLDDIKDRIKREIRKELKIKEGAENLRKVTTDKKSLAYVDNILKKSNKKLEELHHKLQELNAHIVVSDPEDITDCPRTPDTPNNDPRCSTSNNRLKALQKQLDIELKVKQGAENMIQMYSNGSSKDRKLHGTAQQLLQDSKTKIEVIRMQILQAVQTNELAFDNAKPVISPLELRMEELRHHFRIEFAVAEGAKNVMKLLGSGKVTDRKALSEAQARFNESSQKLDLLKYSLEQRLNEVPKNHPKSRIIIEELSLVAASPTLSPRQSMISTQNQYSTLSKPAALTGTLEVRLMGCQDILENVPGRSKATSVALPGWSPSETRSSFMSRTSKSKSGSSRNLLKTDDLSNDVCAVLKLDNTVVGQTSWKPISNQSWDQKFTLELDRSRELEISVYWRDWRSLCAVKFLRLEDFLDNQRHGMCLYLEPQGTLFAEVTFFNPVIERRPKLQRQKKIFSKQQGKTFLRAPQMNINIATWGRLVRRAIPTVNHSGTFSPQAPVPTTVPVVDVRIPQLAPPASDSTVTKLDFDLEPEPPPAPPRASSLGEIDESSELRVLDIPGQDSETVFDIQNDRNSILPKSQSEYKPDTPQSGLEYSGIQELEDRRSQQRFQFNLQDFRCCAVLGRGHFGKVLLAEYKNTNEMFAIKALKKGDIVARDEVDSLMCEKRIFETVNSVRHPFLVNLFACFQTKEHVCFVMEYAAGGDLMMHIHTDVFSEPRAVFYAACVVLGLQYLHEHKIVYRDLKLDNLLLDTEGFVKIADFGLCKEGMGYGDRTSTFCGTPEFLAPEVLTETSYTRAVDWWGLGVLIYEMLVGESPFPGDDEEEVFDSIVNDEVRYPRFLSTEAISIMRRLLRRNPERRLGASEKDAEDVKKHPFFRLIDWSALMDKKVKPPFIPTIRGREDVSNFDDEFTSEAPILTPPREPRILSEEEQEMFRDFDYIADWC

[3] = biological target: T2, SNF-related serine/threonine-protein kinase (Homo sapiens) (UniProt Q9NRH2); assay: Inhibition of human recombinant SNRK at 500 nM related to control ULK1
T2 sequence (whole entry): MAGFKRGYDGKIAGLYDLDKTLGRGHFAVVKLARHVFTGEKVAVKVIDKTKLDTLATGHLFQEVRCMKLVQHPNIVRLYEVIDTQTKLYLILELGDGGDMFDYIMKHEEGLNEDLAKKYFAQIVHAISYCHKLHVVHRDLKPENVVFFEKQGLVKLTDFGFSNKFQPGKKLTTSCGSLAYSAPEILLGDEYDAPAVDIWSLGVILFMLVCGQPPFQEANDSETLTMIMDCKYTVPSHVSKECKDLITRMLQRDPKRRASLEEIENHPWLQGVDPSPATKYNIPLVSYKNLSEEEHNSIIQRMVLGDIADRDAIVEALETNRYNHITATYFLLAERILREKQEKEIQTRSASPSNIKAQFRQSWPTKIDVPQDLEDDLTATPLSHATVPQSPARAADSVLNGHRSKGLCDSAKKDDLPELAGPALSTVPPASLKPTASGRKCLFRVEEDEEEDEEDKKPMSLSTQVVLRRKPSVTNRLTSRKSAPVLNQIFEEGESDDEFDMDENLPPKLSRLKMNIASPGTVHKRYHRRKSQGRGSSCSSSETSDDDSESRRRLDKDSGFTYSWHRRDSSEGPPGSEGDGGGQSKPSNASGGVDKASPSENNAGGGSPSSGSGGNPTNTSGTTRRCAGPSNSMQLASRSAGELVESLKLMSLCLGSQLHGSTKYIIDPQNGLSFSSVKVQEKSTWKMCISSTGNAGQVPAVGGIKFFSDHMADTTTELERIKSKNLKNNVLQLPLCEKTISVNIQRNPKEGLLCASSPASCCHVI

[4] = biological target: Tyrosine-protein kinase Yes (Homo sapiens) (UniProt P07947); assay: Inhibition of human recombinant YES at 500 nM related to control ULK1
Chain of Tyrosine-protein kinase Yes (Homo sapiens) (P07947 2-543 limits assumed): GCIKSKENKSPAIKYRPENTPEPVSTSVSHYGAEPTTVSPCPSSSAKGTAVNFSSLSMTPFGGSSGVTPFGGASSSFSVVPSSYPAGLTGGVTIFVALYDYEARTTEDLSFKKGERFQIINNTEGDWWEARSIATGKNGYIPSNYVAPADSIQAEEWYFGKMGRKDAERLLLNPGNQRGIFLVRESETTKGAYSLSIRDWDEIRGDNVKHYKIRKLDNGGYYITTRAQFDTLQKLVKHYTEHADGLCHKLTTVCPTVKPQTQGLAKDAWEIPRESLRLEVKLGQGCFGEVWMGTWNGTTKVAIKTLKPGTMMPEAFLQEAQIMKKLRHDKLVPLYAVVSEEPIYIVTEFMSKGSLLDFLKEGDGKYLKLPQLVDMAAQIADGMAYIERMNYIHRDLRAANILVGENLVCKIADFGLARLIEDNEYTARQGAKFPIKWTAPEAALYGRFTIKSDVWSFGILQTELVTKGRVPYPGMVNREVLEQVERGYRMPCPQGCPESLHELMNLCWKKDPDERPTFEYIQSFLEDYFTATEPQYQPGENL

[5] = biological target: T3, Testis-specific serine/threonine-protein kinase 2 (Homo sapiens) (UniProt Q96PF2); assay: Inhibition of human recombinant TSSK2 at 15 nM in presence of ATP by radiometric assay relative to control
T3 sequence (whole entry): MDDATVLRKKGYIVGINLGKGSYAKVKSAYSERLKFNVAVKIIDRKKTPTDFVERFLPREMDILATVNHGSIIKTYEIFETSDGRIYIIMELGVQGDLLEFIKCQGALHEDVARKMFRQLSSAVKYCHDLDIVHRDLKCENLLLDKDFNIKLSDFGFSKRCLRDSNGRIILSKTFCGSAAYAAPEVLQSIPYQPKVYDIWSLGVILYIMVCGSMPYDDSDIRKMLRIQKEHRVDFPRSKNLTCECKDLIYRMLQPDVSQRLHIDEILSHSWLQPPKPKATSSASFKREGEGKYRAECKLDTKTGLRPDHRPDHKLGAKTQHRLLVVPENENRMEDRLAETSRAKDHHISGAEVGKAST

[6] = biological target: Serine/threonine-protein kinase 38-like (Homo sapiens) (UniProt Q9Y2H1); assay: Inhibition of human recombinant NDR2 at 15 nM related to control ULK1
Chain of Serine/threonine-protein kinase 38-like (Homo sapiens) (Q9Y2H1 2-464 limits assumed): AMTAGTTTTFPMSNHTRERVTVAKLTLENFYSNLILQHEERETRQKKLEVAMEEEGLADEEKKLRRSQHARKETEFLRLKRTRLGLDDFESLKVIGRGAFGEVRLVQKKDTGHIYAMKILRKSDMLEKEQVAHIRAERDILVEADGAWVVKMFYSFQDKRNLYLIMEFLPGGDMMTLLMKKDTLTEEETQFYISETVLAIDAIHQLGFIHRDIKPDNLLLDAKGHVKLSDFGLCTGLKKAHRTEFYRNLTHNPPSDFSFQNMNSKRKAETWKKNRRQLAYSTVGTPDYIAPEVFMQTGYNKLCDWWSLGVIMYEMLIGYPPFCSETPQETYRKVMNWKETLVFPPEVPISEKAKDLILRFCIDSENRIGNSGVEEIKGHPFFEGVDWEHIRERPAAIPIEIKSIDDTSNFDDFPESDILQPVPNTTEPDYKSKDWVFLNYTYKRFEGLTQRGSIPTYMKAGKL

[7] = biological target: T4, Testis-specific serine/threonine-protein kinase 1 (Homo sapiens) (UniProt Q9BXA7); assay: Inhibition of human recombinant TSSK1 at 40 nM related to control ULK1
T4 sequence (whole entry): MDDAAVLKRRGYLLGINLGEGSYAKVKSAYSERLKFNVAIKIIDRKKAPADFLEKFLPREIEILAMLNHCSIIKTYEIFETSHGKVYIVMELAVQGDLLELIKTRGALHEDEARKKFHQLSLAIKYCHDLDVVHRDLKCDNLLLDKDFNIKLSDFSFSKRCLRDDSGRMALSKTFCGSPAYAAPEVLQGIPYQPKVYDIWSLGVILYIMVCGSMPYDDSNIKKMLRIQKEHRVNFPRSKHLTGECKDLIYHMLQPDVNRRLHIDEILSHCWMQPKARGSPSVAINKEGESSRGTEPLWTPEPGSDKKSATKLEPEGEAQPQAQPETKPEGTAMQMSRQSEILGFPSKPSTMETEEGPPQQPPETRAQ

inhibition [1]: 0%
inhibition [2]: 0%
fold change (FC) [3]: 0
fold change (FC) [4]: 0.89
Compound: CNC(=O)c1ccccc1Oc1nc(Nc2cc(OC)c(OC)c(OC)c2)ncc1Br

inhibition [5]: 1%
fold change (FC) [6]: 0.02
Compound: CC(C)[C@H](NC(=O)c1cc(-c2cnn3cc(-c4ccc(OCCN5CCCCC5)cc4)cnc23)cs1)C(F)(F)F

fold change (FC) [7]: 0
Compound: O=C(N[C@@H](C1CC1)C(F)(F)F)c1cc(-c2cnn3cc(-c4ccc(F)cc4)cnc23)cs1
